Patent US20040235919A1, “Phenylacetamido-thiazole derivatives, process for the preparation and their use as antitumor agents” (priority 2001, published 2004)

Target: cdk2/cyclin A (Homo sapiens, UniProt P24941)
Test: Inhibition assay of cdk2/Cyclin A activity (SPA)
Type: biochemical
Details: tested against cdk2/cyclin A; read-out: inhibitory activity, expressed as IC50
Description: When the number of compounds to be tested became consistent, the need for a fast and homogeneous screening assay was raised. Thus a method of assay based on the use of the SPA technology (Amersham Pharmacia Biotech) was set up. The assay consists of the transfer of radioactivity labelled phosphate moiety by the kinase to a biotinylated substrate. The resulting 33P-labelled biotinylated product is allowed to bind to streptavidin-coated SPA beads (biotin capacity 130 pmol/mg), and light emitted was measured in a scintillation counter.
Inhibition Assay of cdk2/Cyclin A Activity
Kinase reaction: 4 microM in house biotinylated histone H1 (Sigma # H-5505) substrate, 10 microM ATP (0.1 microCi P^33gamma-ATP), 4.2 ng cdk2/Cyclin A complex, inhibitor in a final volume of 30 microl buffer (TRIS HCl 10 mM pH 7.5, MgCl2 10 mM, DTT 7.5 mM+0.2 mg/ml BSA) were added to each well of a 96 U bottom. […]
After 20 min. incubation for substrate capture, 100 microl 5M CsCl were added to allow statification of beads to the top of the plate and let stand 4 hours before radioactivity counting in the Top-Count instrument
IC50 determination: inhibitors were tested at different concentrations ranging from 0.0015 to 10 microM. Experimental data were analyzed by the computer program GraphPad Prizm using the four parameter logistic equation: […]

CC(=O)Nc1ccc([C@H](C)C(=O)Nc2ncc(C(C)C)s2)cc1 [(2S)-2-[4-(acetylamino)phenyl]-N-(5-isopropyl-1,3-thiazol-2-yl)propanamide]
IC50: 11 nM

CC(=O)Nc1ccc(CC(=O)Nc2ncc(C(C)C)s2)cc1 [N-(5-isopropyl-1,3-thiazol-2-yl)-2-[4-(acetylamino)phenyl]acetamide]
IC50: 110 nM
